# Results from patent US10556888B2, “Pyrazole compounds or salts thereof, preparation methods therefor, herbicidal compositions and use thereof” (QINGDAO KINGAGROOT CHEMICAL COMPOUNDS CO., LTD, priority 2015, dated 2020).
# What was measured:
# Format in all cases: in vivo
# [1] = tested on: Monocotyledonous and dicotyledonous weed; assay: Post-emergence test experiment, weed control effect (Table 2); set-up: key to weed control effect, Setaria viridis (level) / weed control effect, Rorippa indica (level) / weed control effect, Abutilon theophrasti (level) / weed control effect, Echinochloa crus-galli (level) / weed control effect, Digitaria sanguinalis (level): Level 10: completely dead; Level 9: above 90% growth inhibition rate; Level 8: above 80% growth inhibition rate; Level 7: above 70% growth inhibition rate; Level 6: above 60% growth inhibition rate; Level 5: above 50% growth inhibition rate; Level 4: above 30% growth inhibition rate; Level 3: above 20% growth inhibition rate; Level 2: above 10% growth inhibition rate; Level 1: above 1-10% growth inhibition rate; Level 0: no effect; conditions: 3 weeks after spraying, greenhouse
# Outline: (§1)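 Weed and crop seeds (wheat, corn, rice, soybean, cotton, oilseed, millet, sorghum) grown in soil in greenhouse; sprayed at 2-3 leaf stage, 2-3 weeks after sowing, with compound in acetone/Tween 80/water. Effects assessed after 3 weeks further greenhouse culture.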
# [2] = tested on: main crop (wheat, corn, rice, soybean, cotton, oilseed, millet and sorghum); assay: Post-emergence test experiment, main crops (Table 2); set-up: key: Level 10: completely dead; Level 9: above 90% growth inhibition rate; Level 8: above 80% growth inhibition rate; Level 7: above 70% growth inhibition rate; Level 6: above 60% growth inhibition rate; Level 5: above 50% growth inhibition rate; Level 4: above 30% growth inhibition rate; Level 3: above 20% growth inhibition rate; Level 2: above 10% growth inhibition rate; Level 1: above 1-10% growth inhibition rate; Level 0: no effect; conditions: 3 weeks after spraying, greenhouse
# Outline: as §1
# Echinochloa crus-galli = assay: Weed control effect evaluation in transplanted rice field; set-up: key: Level 10: completely dead; Level 9: above 90% growth inhibition rate; Level 8: above 80% growth inhibition rate; Level 7: above 70% growth inhibition rate; Level 6: above 60% growth inhibition rate; Level 5: above 50% growth inhibition rate; Level 4: above 30% growth inhibition rate; Level 3: above 20% growth inhibition rate; Level 2: above 10% growth inhibition rate; Level 1: above 1-10% growth inhibition rate; Level 0: no effect; conditions: transplanted rice field pot test, 14 days after treatment
# Description: (§2) Rice field soil was loaded into a 1/1,000,000 ha pot. The seeds of Echinochloa, Scirpus juncoides, Bidens tripartite and Sagittaria trifolia were sowed and gently covered with soil, then left to stand still in greenhouse in the state of 0.5-1 cm of water storage. The tuber of Sagittaria trifolia was planted in the next day or 2 days later. It was kept at 3-4 cm of water storage thereafter. The weeds were treated by dripping the WP or SC water diluents prepared according to the common preparation method of the compounds of the present invention with pipette homogeneously to achieve specified effective amount when Echinochloa, Scirpus juncoides and Bidens tripartite reached 0.5 leaf stage and Sagittaria trifolia reached the time point of primary leaf stage.
# (§3) The fertility condition of Echinochloa, Scirpus juncoides, Bidens tripartite and Sagittaria trifolia 14 days after the treatment of the compound of the invention and the fertility condition of rice 21 days after the treatment of the compound of the invention respectively with the naked eye.
# (§4) The seeds of Echinochloa crus-galli, Scirpus juncoides and Monochoria vaginalis were collected from Heilongjing and Jiangsu Province of China.
# Monochoria vaginalis = assay: as above; set-up: key: Level 10: completely dead; Level 9: above 90% growth inhibition rate; Level 8: above 80% growth inhibition rate; Level 7: above 70% growth inhibition rate; Level 6: above 60% growth inhibition rate; Level 5: above 50% growth inhibition rate; Level 4: above 30% growth inhibition rate; Level 3: above 20% growth inhibition rate; Level 2: above 10% growth inhibition rate; Level 1: above 1-10% growth inhibition rate; Level 0: no effect; conditions: transplanted rice field pot test, 14 days after treatment
# Description: as §2, §3, §4
# Scirpus juncoides = assay: as above; set-up: key: Level 10: completely dead; Level 9: above 90% growth inhibition rate; Level 8: above 80% growth inhibition rate; Level 7: above 70% growth inhibition rate; Level 6: above 60% growth inhibition rate; Level 5: above 50% growth inhibition rate; Level 4: above 30% growth inhibition rate; Level 3: above 20% growth inhibition rate; Level 2: above 10% growth inhibition rate; Level 1: above 1-10% growth inhibition rate; Level 0: no effect; conditions: transplanted rice field pot test, 14 days after treatment
# Description: as §2, §3, §4
# Rice = assay: Transplanted rice safety evaluation; set-up: key: Level 10: completely dead; Level 9: above 90% growth inhibition rate; Level 8: above 80% growth inhibition rate; Level 7: above 70% growth inhibition rate; Level 6: above 60% growth inhibition rate; Level 5: above 50% growth inhibition rate; Level 4: above 30% growth inhibition rate; Level 3: above 20% growth inhibition rate; Level 2: above 10% growth inhibition rate; Level 1: above 1-10% growth inhibition rate; Level 0: no effect; conditions: transplanted 3 leaf stage japonica rice, 21 days after treatment
# Description: In addition, the rice field soil that loaded into the 1/1,000,000 ha pot was leveled to keep water storage at 3-4 cm depth. The 3 leaf stage rice (japonica rice) was transplanted at 3 cm of transplanting depth the next day. The compound of the present invention was treated by the same way after 5 days of transplantation. The fertility condition of Echinochloa, Scirpus juncoides, Bidens tripartite and Sagittaria trifolia 14 days after the treatment of the compound of the invention and the fertility condition of rice 21 days after the treatment of the compound of the invention respectively with the naked eye.
SMILES,"Weed control effect, Echinochloa crus-galli (activity level) (Echinochloa crus-galli; application rate 60 g/ha)","Weed control effect, Monochoria vaginalis (activity level) (Monochoria vaginalis; application rate 60 g/ha)","Weed control effect, Scirpus juncoides (activity level) (Scirpus juncoides; application rate 60 g/ha)","Rice (safety, activity level) (Rice; application rate 60 g/ha)","weed control effect, Abutilon theophrasti (level) ([1]; 30 g/ha)","weed control effect, Bidens pilosa (level) ([1]; 30 g/ha)","weed control effect, Digitaria sanguinalis (level) ([1]; 30 g/ha)","weed control effect, Echinochloa crus-galli (level) ([1]; 30 g/ha)","weed control effect, Rorippa indica (level) ([1]; 30 g/ha)","weed control effect, Setaria viridis (level) ([1]; 30 g/ha)","effect on crop, corn (level) ([2]; 30 g/ha)","effect on crop, rice (level) ([2]; 30 g/ha)","effect on crop, wheat (level) ([2]; 30 g/ha)",also measured
C#CCOCc1c(S(C)(=O)=O)ccc(C(=O)c2c(CC)nn(CC)c2OC(=O)c2c(Cl)c(CC)nn2C)c1Cl [Compound 107],9 (Level 9: above 90% growth inhibition rate),10,10,10,,,,,,,,,,"weed control effect, Abutilon theophrasti (level) ([1]; 60 g/ha): 10; weed control effect, Bidens pilosa (level) ([1]; 60 g/ha): 8 (Level 8: above 80% growth inhibition rate); weed control effect, Digitaria sanguinalis (level) ([1]; 60 g/ha): 8 (Level 8: above 80% growth inhibition rate); weed control effect, Echinochloa crus-galli (level) ([1]; 60 g/ha): 10; weed control effect, Rorippa indica (level) ([1]; 60 g/ha): 10; weed control effect, Setaria viridis (level) ([1]; 60 g/ha): 10; effect on crop, corn (level) ([2]; 60 g/ha): 0; effect on crop, rice (level) ([2]; 60 g/ha): 7 (Level 7: above 70% growth inhibition rate); effect on crop, wheat (level) ([2]; 60 g/ha): 0"
CCOc1c(C(=O)Oc2c(C(=O)c3ccc(S(C)(=O)=O)c(Cn4ccc(C)n4)c3Cl)cnn2C)cnn1C [Compound 24],10,9 (Level 9: above 90% growth inhibition rate),10,1 (Level 1: above 1-10% growth inhibition rate),,,,,,,,,,"weed control effect, Abutilon theophrasti (level) ([1]; 120 g/ha): 6 (Level 6: above 60% growth inhibition rate); weed control effect, Bidens pilosa (level) ([1]; 120 g/ha): 6 (Level 6: above 60% growth inhibition rate); weed control effect, Digitaria sanguinalis (level) ([1]; 120 g/ha): 1 (Level 1: above 1-10% growth inhibition rate); weed control effect, Echinochloa crus-galli (level) ([1]; 120 g/ha): 9 (Level 9: above 90% growth inhibition rate); weed control effect, Rorippa indica (level) ([1]; 120 g/ha): 4 (Level 4: above 30% growth inhibition rate); weed control effect, Setaria viridis (level) ([1]; 120 g/ha): 2 (Level 2: above 10% growth inhibition rate); effect on crop, corn (level) ([2]; 120 g/ha): 0; effect on crop, rice (level) ([2]; 120 g/ha): 0; effect on crop, wheat (level) ([2]; 120 g/ha): 0"
Cc1nn(C)cc1C(=O)Oc1c(C(=O)c2ccc(S(C)(=O)=O)c(COCC(F)F)c2Cl)cnn1C [Compound 40],10,9 (Level 9: above 90% growth inhibition rate),9 (Level 9: above 90% growth inhibition rate),0,7 (Level 7: above 70% growth inhibition rate),7 (Level 7: above 70% growth inhibition rate),10,10,10,9 (Level 9: above 90% growth inhibition rate),0,5 (Level 5: above 50% growth inhibition rate),0,
C#CCOCc1c(S(C)(=O)=O)ccc(C(=O)c2c(C)nn(C)c2OC(=O)c2cn(C)nc2C)c1C [Compound 76],10,10,10,0,7 (Level 7: above 70% growth inhibition rate),7 (Level 7: above 70% growth inhibition rate),7 (Level 7: above 70% growth inhibition rate),10,10,10,1 (Level 1: above 1-10% growth inhibition rate),3 (Level 3: above 20% growth inhibition rate),0,
CCn1nc(C2CC2)c(C(=O)c2ccc(S(C)(=O)=O)c(COCC(F)F)c2Cl)c1OC(=O)c1cn(C)nc1C [Compound 90],10,10,10,0,7 (Level 7: above 70% growth inhibition rate),7 (Level 7: above 70% growth inhibition rate),10,10,10,10,1 (Level 1: above 1-10% growth inhibition rate),3 (Level 3: above 20% growth inhibition rate),0,
Cc1ccn(Cc2c(S(C)(=O)=O)ccc(C(=O)c3cnn(C)c3OC(=O)c3cn(C)nc3C)c2Cl)n1 [Compound 06],,,,,,,,,,,,,,"weed control effect, Abutilon theophrasti (level) ([1]; 120 g/ha): 7 (Level 7: above 70% growth inhibition rate); weed control effect, Bidens pilosa (level) ([1]; 120 g/ha): 9 (Level 9: above 90% growth inhibition rate); weed control effect, Digitaria sanguinalis (level) ([1]; 120 g/ha): 2 (Level 2: above 10% growth inhibition rate); weed control effect, Echinochloa crus-galli (level) ([1]; 120 g/ha): 10; weed control effect, Rorippa indica (level) ([1]; 120 g/ha): 10; weed control effect, Setaria viridis (level) ([1]; 120 g/ha): 6 (Level 6: above 60% growth inhibition rate); effect on crop, corn (level) ([2]; 120 g/ha): 0; effect on crop, rice (level) ([2]; 120 g/ha): 1 (Level 1: above 1-10% growth inhibition rate); effect on crop, wheat (level) ([2]; 120 g/ha): 0; Weed control effect, Echinochloa crus-galli (activity level) (Echinochloa crus-galli; application rate 500 g/ha): 10; Weed control effect, Monochoria vaginalis (activity level) (Monochoria vaginalis; application rate 500 g/ha): 10; Weed control effect, Scirpus juncoides (activity level) (Scirpus juncoides; application rate 500 g/ha): 10; Rice (safety, activity level) (Rice; application rate 500 g/ha): 1 (Level 1: above 1-10% growth inhibition rate)"
CCOCc1c(S(C)(=O)=O)ccc(C(=O)c2c(CC)nn(CC)c2OC(=O)c2nn(C)cc2Cl)c1Cl [Compound 104],,,,,,,,,,,,,,"weed control effect, Abutilon theophrasti (level) ([1]; 60 g/ha): 10; weed control effect, Bidens pilosa (level) ([1]; 60 g/ha): 8 (Level 8: above 80% growth inhibition rate); weed control effect, Digitaria sanguinalis (level) ([1]; 60 g/ha): 10; weed control effect, Echinochloa crus-galli (level) ([1]; 60 g/ha): 10; weed control effect, Rorippa indica (level) ([1]; 60 g/ha): 10; weed control effect, Setaria viridis (level) ([1]; 60 g/ha): 10; effect on crop, corn (level) ([2]; 60 g/ha): 0; effect on crop, rice (level) ([2]; 60 g/ha): 4 (Level 4: above 30% growth inhibition rate); effect on crop, wheat (level) ([2]; 60 g/ha): 0"
